According to ChEMBL document CHEMBL1201862, “PubChem BioAssay data set” (2004):
Active and inactive are the calls of the source.

Columns and labels:
[1] = biological target: T1, Voltage-gated N-type calcium channel alpha-1B subunit/Amyloid beta A4 precursor protein-binding family A member 1 (Homo sapiens, UniProt Q00975+Q02410); format: protein assay
[2] = biological target: T1, Voltage-gated N-type calcium channel alpha-1B subunit/Amyloid beta A4 precursor protein-binding family A member 1; format: protein assay; remark: listed apart in the source
[3] = LGR2 antagonists, dose response, cell-based, HEK293, CRE-luciferase reporter, cherry pick, set 2 (AID 743343); format: functional;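 further: transfected cells were stimulated with diluted bursicon conditioned medium after compound addition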
[4] = Luminescence Cell-Based Dose Response HTS to Identify Inhibitors of 5'UTR Stem-Loop Driven Prion Protein mRNA Translation in H4 Neuroglioblastoma Cells. [Related pubchem assays: 1827 (Project Summary), 1813 (Primary HTS)]; format: functional
[5] = inhibitors of SNCA 5'UTR-driven reporter translation, confirmation, H4 neuroglioma cells, luminescence (AID 1988); format: functional, cell-based
[6] = MC4R antagonists, dose response, counter-screen for LGR2 antagonist project, cell-based, plate reader, cherry pick (AID 743444); format: functional;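 further: transfected HEK 293 cells stimulated with alpha-MSH peptide; potency of inhibitors of the alpha-MSH evoked signal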
[7] = biological target: T2, Microphthalmia-associated transcription factor (Homo sapiens, UniProt O75030); experiment: TRPM1 promoter luciferase signal decrease, dose response, MITF inhibitor project, cell-based, SK-MEL-5, cherry-picked, set 3 (AID 493073); format: functional
T2 sequence (O75030 whole entry): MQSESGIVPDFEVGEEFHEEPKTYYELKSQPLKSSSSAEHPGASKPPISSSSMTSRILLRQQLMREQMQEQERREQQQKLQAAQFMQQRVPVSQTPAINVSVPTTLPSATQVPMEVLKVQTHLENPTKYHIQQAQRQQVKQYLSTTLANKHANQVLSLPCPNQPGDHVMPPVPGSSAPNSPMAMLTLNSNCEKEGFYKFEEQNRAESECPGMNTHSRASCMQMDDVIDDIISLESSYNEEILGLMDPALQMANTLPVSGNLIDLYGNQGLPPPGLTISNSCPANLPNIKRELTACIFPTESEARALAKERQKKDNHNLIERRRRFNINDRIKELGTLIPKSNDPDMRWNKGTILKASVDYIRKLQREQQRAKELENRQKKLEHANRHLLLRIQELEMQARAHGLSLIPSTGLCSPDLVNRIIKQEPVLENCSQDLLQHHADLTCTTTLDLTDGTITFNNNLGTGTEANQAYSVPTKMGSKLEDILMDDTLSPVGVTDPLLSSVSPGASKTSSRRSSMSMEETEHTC

[8] = HEK293 cell cytotoxicity, dose response, cytotoxicity control, plate reader, cherry-picked samples (AID 743446); format: functional, cell-based
[9] = HepG2 cell cytotoxicity, dose response, cytotoxicity control, plate reader, cherry-pick, antagonist series (AID 743416); format: functional, cell-based
[10] = inhibitors of firefly luciferase expression or activity, dose response, H4 neuroglioma cells, luminescence (AID 1990); format: functional, cell-based
[11] = A549 cell cytotoxicity, dose response, cytotoxicity control, plate reader, cherry-pick, antagonist series (AID 743412); format: functional, cell-based
Prothrombin = Prothrombin (Homo sapiens, UniProt P00734); experiment: Thrombin 1536 HTS Dose Response Confirmation. [Related pubchem assays: 1046 (Thrombin 1536 HTS; hits were confirmed in this assay)]; format: functional
Ephrin type-A receptor 4 = Ephrin type-A receptor 4 (Mus musculus, UniProt Q03137); experiment: inhibitors of EphA4 binding to KYL peptide, primary screen, biochemical, colorimetric, mouse EphA4 (AID 689); format: functional
Chain of Ephrin type-A receptor 4 (Q03137 whole entry, the tested form may be a part): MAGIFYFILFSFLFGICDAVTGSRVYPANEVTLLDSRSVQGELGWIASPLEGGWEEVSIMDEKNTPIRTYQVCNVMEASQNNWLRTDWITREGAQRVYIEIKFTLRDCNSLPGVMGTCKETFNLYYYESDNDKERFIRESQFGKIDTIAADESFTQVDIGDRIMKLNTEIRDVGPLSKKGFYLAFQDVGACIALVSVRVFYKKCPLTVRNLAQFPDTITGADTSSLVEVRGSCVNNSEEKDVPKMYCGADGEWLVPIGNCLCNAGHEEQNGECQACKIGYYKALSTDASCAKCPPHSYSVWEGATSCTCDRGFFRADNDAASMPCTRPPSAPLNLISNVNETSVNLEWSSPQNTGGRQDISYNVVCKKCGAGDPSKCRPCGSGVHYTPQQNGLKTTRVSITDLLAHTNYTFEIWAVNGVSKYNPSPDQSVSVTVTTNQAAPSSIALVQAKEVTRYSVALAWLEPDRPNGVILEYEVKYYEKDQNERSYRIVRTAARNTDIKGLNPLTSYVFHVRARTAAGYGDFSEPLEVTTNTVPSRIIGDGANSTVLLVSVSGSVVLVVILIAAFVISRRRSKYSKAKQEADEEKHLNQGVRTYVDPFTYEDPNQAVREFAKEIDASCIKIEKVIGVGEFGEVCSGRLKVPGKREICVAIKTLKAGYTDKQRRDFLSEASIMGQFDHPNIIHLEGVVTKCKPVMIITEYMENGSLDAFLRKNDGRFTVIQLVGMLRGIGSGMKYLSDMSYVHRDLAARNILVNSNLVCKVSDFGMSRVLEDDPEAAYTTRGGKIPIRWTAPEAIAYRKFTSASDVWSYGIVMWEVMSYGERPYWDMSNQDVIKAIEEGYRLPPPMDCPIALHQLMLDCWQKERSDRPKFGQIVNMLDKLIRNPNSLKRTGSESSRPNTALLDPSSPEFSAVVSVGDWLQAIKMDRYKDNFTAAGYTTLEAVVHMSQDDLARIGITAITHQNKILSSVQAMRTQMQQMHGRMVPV

[12] = CEM21 lymphoblast cell cytotoxicity, dose response, cytotoxicity control for viral fusion inhibitor project, CellTiter-Glo luminescence, cherry-picked (AID 652042); format: functional, cell-based;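 further: potency for signal decrease meaning cytotoxicity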
[13] = ZM109 Env clade C HIV-1 fusion inhibitors, dose response, HeLa effector, CEM target cells, luciferase, cherry-pick (AID 652058); format: functional, cell-based
[14] = inhibitors of clade B AD8 Env fusion, dose response, cell-based, cherry-pick (AID 652062); format: functional;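 further: luciferase signal from cell-cell fusion driven by HIV-1 clade B AD8 Env; potency is for inhibitors of fusion seen as a drop in luminescence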
[15] = inhibitors of HIV Env-driven cell fusion, dose response, cherry-pick (AID 652057); format: functional, cell-based
[16] = off-target signal loss in HeLa-CEM21 co-culture – HeLa F-luc CTL cells, cherry-picked, counter-screen for HIV-1 Env fusion inhibitor project, dose response (AID 652040); format: functional, cell-based;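 further: potency for signal decrease marking cytotoxic or nonspecific inhibition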
[17] = intracellular Trypanosoma cruzi inhibitors in host cells – cell-based, plate reader, cherry-pick samples, set 3, dose response (AID 651818); format: functional;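 further: compounds incubated with infected cells for about four days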
[18] = biological target: T3, Trace amine-associated receptor 1 (Homo sapiens, UniProt Q96RJ0); experiment: Counterscreen for agonists of the human trace amine associated receptor 1 (hTAAR1): Fluorescence-based cell-based high throughput dose response assay to identify hTAAR1 agonist that also desensitize TAAR1 receptor response.; format: functional
T3 sequence (Q96RJ0 whole entry): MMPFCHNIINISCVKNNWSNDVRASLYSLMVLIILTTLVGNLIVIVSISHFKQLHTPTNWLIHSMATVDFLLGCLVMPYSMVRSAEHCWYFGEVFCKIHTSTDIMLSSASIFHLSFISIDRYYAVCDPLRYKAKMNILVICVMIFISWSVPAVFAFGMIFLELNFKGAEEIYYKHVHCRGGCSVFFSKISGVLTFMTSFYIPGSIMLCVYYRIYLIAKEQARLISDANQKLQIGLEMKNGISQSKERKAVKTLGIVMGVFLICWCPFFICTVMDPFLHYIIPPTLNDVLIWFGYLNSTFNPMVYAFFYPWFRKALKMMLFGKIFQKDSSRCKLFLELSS

cells [19] = format: functional, cell-based
cells [20] = format: functional, cell-based; remark: listed apart in the source
[21] = biological target: T3, Trace amine-associated receptor 1; experiment: Fluorescence-based cell-based high throughput dose response assay to identify agonists of the human trace amine associated receptor 1 (TAAR1).; format: functional
[22] = NIH:OVCAR-3 ovarian cancer cell cytotoxicity, dose response, PAX8 inhibitor project, plate reader, dry powder samples (AID 743044); format: functional, cell-based
[23] = cytotoxicity in OVCAR8 ovarian cancer cells, dose response, PAX8 project, cell-based, plate reader, dry powder samples (AID 743197); format: functional; conditions: OVCAR-8
Paired box protein Pax-8 = Paired box protein Pax-8 (Homo sapiens, UniProt Q06710); experiment: inhibitors of PAX8-driven TPO luciferase reporter, dose response, RMG-I cells, cherry-pick (AID 687027); format: functional, cell-based;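 further: luciferase reporter driven by Pax8 target thyroperoxidase promoter measured by SteadyGlo luminescence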
Chain of Paired box protein Pax-8 (Q06710 whole entry): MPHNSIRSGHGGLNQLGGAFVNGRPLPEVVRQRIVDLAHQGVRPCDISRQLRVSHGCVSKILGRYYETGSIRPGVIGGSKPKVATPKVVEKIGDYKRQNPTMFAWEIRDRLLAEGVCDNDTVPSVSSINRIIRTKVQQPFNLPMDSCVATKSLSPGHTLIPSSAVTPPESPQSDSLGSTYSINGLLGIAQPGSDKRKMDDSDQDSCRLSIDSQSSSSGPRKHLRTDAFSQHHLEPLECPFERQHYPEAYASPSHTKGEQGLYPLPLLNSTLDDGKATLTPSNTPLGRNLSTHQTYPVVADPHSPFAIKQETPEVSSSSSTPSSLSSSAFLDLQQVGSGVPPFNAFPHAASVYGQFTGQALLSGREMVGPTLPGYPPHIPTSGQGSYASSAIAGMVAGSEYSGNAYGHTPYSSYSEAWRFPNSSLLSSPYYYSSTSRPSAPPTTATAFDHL

[24] = IGROV1 ovarian cancer cell cytotoxicity, dose response, PAX8 inhibitor project, plate reader, dry powder samples (AID 743043); format: functional, cell-based; conditions: IGROV-1

T1 sequence (Q00975 whole entry): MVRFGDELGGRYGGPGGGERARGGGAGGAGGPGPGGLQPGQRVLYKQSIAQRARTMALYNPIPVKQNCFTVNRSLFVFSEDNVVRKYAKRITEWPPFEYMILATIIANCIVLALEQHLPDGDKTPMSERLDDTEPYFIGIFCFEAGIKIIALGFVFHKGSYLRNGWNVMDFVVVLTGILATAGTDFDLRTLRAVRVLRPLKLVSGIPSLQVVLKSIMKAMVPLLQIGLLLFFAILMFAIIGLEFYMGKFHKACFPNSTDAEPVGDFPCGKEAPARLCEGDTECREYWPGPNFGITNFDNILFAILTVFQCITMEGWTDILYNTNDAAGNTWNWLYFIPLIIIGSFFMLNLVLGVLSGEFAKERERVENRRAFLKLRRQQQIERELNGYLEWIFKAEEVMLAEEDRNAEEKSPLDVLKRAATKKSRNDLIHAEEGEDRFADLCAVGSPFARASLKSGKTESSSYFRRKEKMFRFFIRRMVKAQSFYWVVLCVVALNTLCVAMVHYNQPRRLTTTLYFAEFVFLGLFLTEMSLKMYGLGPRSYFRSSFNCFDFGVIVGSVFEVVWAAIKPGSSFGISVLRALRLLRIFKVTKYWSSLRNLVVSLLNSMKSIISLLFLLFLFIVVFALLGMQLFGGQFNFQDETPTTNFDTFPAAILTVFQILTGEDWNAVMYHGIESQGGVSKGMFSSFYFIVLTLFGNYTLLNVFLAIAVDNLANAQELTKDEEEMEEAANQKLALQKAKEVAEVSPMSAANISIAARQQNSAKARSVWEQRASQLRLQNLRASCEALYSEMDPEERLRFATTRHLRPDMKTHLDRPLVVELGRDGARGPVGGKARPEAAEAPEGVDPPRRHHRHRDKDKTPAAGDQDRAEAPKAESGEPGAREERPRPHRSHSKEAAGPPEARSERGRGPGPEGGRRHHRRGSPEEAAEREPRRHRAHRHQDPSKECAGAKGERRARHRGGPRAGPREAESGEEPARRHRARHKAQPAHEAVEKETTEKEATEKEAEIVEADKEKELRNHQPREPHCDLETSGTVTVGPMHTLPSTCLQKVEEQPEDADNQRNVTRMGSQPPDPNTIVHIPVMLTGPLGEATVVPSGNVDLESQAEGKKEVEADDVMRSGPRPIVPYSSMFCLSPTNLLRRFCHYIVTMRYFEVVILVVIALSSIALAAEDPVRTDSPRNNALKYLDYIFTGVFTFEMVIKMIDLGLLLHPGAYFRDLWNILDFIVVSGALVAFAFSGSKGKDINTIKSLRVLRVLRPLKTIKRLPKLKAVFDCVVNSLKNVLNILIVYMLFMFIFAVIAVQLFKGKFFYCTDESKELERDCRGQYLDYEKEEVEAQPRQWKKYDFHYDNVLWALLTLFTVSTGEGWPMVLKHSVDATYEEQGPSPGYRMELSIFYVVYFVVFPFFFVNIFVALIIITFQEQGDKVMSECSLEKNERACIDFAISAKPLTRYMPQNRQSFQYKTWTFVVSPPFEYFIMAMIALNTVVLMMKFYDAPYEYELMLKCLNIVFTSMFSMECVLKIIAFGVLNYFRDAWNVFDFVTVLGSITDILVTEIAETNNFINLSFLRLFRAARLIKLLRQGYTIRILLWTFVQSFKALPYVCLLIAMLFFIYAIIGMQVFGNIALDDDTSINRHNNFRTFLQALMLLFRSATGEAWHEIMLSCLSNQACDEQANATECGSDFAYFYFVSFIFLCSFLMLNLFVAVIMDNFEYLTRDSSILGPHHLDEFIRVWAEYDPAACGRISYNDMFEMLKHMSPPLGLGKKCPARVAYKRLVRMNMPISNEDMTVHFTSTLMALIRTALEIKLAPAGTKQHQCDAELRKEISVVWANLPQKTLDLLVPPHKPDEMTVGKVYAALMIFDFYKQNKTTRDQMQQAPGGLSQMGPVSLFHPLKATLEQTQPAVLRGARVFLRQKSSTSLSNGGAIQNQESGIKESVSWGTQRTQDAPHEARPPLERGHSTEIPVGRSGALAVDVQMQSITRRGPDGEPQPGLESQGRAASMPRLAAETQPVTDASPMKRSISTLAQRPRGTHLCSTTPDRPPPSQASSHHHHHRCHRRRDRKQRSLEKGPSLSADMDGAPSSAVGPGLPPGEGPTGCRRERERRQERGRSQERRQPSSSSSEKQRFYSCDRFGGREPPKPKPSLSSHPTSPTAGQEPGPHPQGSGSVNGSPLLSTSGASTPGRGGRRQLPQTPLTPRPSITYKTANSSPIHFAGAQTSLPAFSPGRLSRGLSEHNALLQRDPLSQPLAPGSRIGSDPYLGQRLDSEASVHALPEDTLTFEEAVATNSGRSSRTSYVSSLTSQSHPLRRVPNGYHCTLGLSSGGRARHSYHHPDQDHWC
T1 sequence (Q02410 whole entry): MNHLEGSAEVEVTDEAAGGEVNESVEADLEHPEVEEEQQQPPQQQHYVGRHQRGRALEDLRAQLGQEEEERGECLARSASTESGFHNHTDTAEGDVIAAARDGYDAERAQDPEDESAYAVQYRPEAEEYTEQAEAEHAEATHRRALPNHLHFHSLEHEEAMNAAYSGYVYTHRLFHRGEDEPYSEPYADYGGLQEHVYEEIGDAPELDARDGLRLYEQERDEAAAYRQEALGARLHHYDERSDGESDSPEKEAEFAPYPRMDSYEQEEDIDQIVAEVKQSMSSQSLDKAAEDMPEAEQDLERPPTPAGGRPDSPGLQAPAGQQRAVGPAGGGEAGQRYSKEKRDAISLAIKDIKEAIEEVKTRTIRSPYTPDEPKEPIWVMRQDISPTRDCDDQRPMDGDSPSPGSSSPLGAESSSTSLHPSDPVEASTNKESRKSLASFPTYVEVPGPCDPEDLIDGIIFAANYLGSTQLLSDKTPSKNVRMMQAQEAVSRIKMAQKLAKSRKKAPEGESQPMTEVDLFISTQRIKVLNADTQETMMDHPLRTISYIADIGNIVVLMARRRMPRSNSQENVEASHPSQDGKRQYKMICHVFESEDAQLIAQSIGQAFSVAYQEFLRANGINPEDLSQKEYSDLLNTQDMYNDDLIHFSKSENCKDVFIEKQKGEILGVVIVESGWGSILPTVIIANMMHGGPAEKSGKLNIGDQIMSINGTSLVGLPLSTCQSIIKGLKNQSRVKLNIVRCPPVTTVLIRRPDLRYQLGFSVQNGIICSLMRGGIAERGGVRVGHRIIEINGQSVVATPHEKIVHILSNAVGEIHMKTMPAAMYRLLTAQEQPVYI

Which results are given for `Cc1ccc2[nH]c(=O)c(C=C3C(=O)NC(=S)NC3=O)cc2c1`?
IC50 [1]: 42.1 µM (active); IC50 [2]: 9.32 µM (active)

Which AC50 [3] does the source give for `O=c1c2ccccc2cnn1CCOc1ccccc1` here?
Its AC50 is 2.52 µM (active).

What about the EC50 [4] of the same compound?
Its EC50 is 0.392 µM (active).

And the EC50 [5]?
The EC50 was 1.97 µM (active).

What about the AC50 [6] of the same compound?
Its AC50 is 2.62 µM (active).

And the AC50 [7]?
Its AC50 is 7.2 µM (active).

And the AC50 [8]?
Its AC50 is 48.8 µM (active).

What about the AC50 [9] of the same compound?
The AC50 was > 52 µM (inactive).

And the EC50 [10]?
The EC50 was 4.07 µM (active).

And the AC50 [11]?
Its AC50 is 45.5 µM (active).

For `O=C(COC(=O)CCOc1ccccc1)Nc1ccc(Cl)cn1`, which IC50 (Prothrombin) is on record?
The IC50 was 30.8 µM (active).

For `CC1=N/C(=C\c2ccc([N+](=O)[O-])cc2)C(=O)N1c1cc(Cl)ccc1C`, which IC50 (Ephrin type-A receptor 4) is on record?
Its IC50 is 3.45 µM (active).

Which IC50 (Prothrombin) does the source give for `COc1ccc(CC(=O)n2nc(-c3cccnc3)nc2N)cc1` here?
Its IC50 is 0.259 µM (active).

With `CC(C)c1ccc(N(C(=O)c2csnn2)C(C(=O)NC2CCCC2)c2ccncc2)cc1` (stereo not given) as the compound, how does the AC50 [12] read?
The AC50 was 60.5 µM (active).

What about the AC50 [13] of the same compound?
The AC50 was 0.654 µM (active).

What about the AC50 [14] of the same compound?
The AC50 was 1.76 µM (active).

What about the AC50 [15] of the same compound?
The AC50 was 0.795 µM (active).

What about the AC50 [16] of the same compound?
The AC50 was 1.59 µM (active).

With `O=C(CN1CCN(C(=O)CNC(=O)c2ccc(-c3ccccc3)cc2)CC1)Nc1ccccc1Cl` as the compound, how does the AC50 [3] read?
Its AC50 is 43.4 µM (active).

And the AC50 [6]?
The AC50 was 48.1 µM (active).

What about the AC50 [8] of the same compound?
Its AC50 is 30.1 µM (active).

What about the AC50 [9] of the same compound?
The AC50 was 31.7 µM (active).

And the AC50 [11]?
The AC50 was 24.9 µM (active).

For `C[C@H](CO)N1C[C@H](C)[C@H](CN(C)Cc2ccc(C(F)(F)F)cc2)Oc2ccc(NC(=O)Nc3ccc(F)cc3)cc2C1=O`, which AC50 [3] is on record?
The AC50 was 33.1 µM (active).

What about the AC50 [6] of the same compound?
The AC50 was 26.4 µM (active).

And the AC50 [17]?
The AC50 was 5.6 µM (active).

And the AC50 [9]?
The AC50 was 28 µM (active).

And the AC50 [11]?
Its AC50 is 23.1 µM (active).

With `COc1ccccc1CCn1cnc(-c2ccc(Br)cc2)c1CC(C)C` as the compound, how does the IC50 [18] read?
Its IC50 is 7.08 µM (active).

And the IC50 (cells [19])?
Its IC50 is 25.7 µM (inactive).

What about the EC50 (cells [20]) of the same compound?
Its EC50 is > 29.9 µM (inactive).

What about the EC50 [21] of the same compound?
The EC50 was 1.75 µM (active).

For `C[C@@H]1CN([C@@H](C)CO)C(=O)Cc2cc(NS(=O)(=O)c3ccc(F)cc3)ccc2O[C@H]1CN(C)Cc1ccc(C(F)(F)F)cc1`, which AC50 [22] is on record?
The AC50 was 19.7 µM (active).

And the AC50 [23]?
The AC50 was 26.9 µM (active).

What about the AC50 (Paired box protein Pax-8) of the same compound?
The AC50 was 4.76 µM (active).

And the AC50 [24]?
Its AC50 is 29.2 µM (active).

With `O=C(C[C@H]1C[C@@H]2c3cc(NC(=O)Nc4ccc(C(F)(F)F)cc4)ccc3O[C@@H]2[C@@H](CO)O1)NCc1ccc(Cl)cc1` as the compound, how does the AC50 [22] read?
The AC50 was 61.1 µM (active).

And the AC50 (Paired box protein Pax-8)?
The AC50 was 7.85 µM (active).

What about the AC50 [24] of the same compound?
The AC50 was 40.9 µM (active).
